Experimental data from US6054435A, “6-O-substituted macrolides having antibacterial activity” (priority 1999, dated 2000).
Values after ≈ are worked out from the molar mass of the structure shown.

Columns and labels:
Assay in all cases: in vitro antibacterial activity (MIC), agar dilution
Assay type in all cases: cell-based
[1] = tested on: Staphylococcus aureus 1775; conditions: organism code GG; BHI agar, 35-37° C., 20 to 24 hours; unit assumed
Experimental: (§1) Representative compounds of the present invention were assayed in vitro for antibacterial activity as follows: Twelve petri dishes containing successive aqueous dilutions of the test compound mixed with 10 mL of sterilized Brain Heart Infusion (BHI) agar (Difco 0418-01-5) were prepared. Each plate was inoculated with 1:100 (or 1:10 for slow-growing strains, such as Micrococcus and Streptococcus) dilutions of up to 32 different microorganisms, using a Steers replicator block. […] In addition, a control plate, using BHI agar containing no test compound, was prepared and incubated at the beginning and end of each test.
(§2) An additional plate containing a compound having known susceptibility patterns for the organisms being tested and belonging to the same antibiotic class as the test compound was also prepared and incubated as a further control, as well as to provide test-to-test comparability.
(§3) After incubation, each plate was visually inspected. The minimum inhibitory concentration (MIC) was defined as the lowest concentration of drug yielding no growth, a slight haze, or sparsely isolated colonies on the inoculum spot as compared to the growth control.

[2] = tested on: Streptococcus Pneumonia 5649; conditions: organism code ZZA; BHI agar, 35-37° C., 20 to 24 hours; unit assumed
Experimental: as §1, §2, §3

[3] = tested on: Streptococcus Pneumonia ATCC6303; conditions: organism code XX; BHI agar, 35-37° C., 20 to 24 hours; unit assumed
Experimental: as §1, §2, §3

[4] = tested on: Staphylococcus aureus ATCC 6538P; conditions: organism code AA; BHI agar, 35-37° C., 20 to 24 hours; unit assumed
Experimental: as §1, §2, §3

[5] = tested on: Streptococcus agalactiae CMX 508; conditions: organism code KK; BHI agar, 35-37° C., 20 to 24 hours; unit assumed
Experimental: as §1, §2, §3

[6] = tested on: Staphylococcus aureus NCTC10649M; conditions: organism code EE; BHI agar, 35-37° C., 20 to 24 hours; unit assumed
Experimental: as §1, §2, §3

[7] = tested on: Streptococcus pyogenes 930; conditions: organism code MM; BHI agar, 35-37° C., 20 to 24 hours; unit assumed
Experimental: as §1, §2, §3

[8] = tested on: Streptococcus pyogenes EES61; conditions: organism code LL; BHI agar, 35-37° C., 20 to 24 hours; unit assumed
Experimental: as §1, §2, §3

Escherichia coli JUHL = conditions: organism code QQ; BHI agar, 35-37° C., 20 to 24 hours; unit assumed
Experimental: as §1, §2, §3

[9] = tested on: Nocardia Asteroides ATCC9970; conditions: organism code VV; BHI agar, 35-37° C., 20 to 24 hours; unit assumed
Experimental: as §1, §2, §3

Candida albicans CCH 442 = conditions: organism code TT; BHI agar, 35-37° C., 20 to 24 hours; unit assumed
Experimental: as §1, §2, §3

[10] = tested on: Micrococcus luteus ATCC 4698; conditions: organism code PP; BHI agar, 35-37° C., 20 to 24 hours; unit assumed
Experimental: as §1, §2, §3

[11] = tested on: Mycobacterium smegmatis ATCC 114; conditions: organism code UU; BHI agar, 35-37° C., 20 to 24 hours; unit assumed
Experimental: as §1, §2, §3

[12] = tested on: Haemophilis Influenzae DILL AMP R; conditions: organism code WW; BHI agar, 35-37° C., 20 to 24 hours; unit assumed
Experimental: as §1, §2, §3

[13] = tested on: Streptococcus Pneumonia 5979; conditions: organism code ZZ; BHI agar, 35-37° C., 20 to 24 hours; unit assumed
Experimental: as §1, §2, §3

[14] = tested on: Streptococcus pyogenes PIU 2548; conditions: organism code NN; BHI agar, 35-37° C., 20 to 24 hours; unit assumed
Experimental: as §1, §2, §3

[15] = tested on: Staphylococcus epidermidis 3519; conditions: organism code HH; BHI agar, 35-37° C., 20 to 24 hours; unit assumed
Experimental: as §1, §2, §3

Escherichia coli SS = conditions: organism code RR; BHI agar, 35-37° C., 20 to 24 hours; unit assumed
Experimental: as §1, §2, §3

[16] = tested on: Streptococcus bovis A-5169; conditions: organism code JJ; BHI agar, 35-37° C., 20 to 24 hours; unit assumed
Experimental: as §1, §2, §3

[17] = tested on: Staphylococcus aureus A-5278; conditions: organism code CC; BHI agar, 35-37° C., 20 to 24 hours; unit assumed
Experimental: as §1, §2, §3

[18] = tested on: Streptococcus Pneumonia GYR 1171; conditions: organism code YY; BHI agar, 35-37° C., 20 to 24 hours; unit assumed
Experimental: as §1, §2, §3

[19] = tested on: Staphylococcus aureus A5177; conditions: organism code BB; BHI agar, 35-37° C., 20 to 24 hours; unit assumed
Experimental: as §1, §2, §3

[20] = tested on: Staphylococcus aureus CMX 642A; conditions: organism code DD; BHI agar, 35-37° C., 20 to 24 hours; unit assumed
Experimental: as §1, §2, §3

[21] = tested on: Enterococcus faecium ATCC 8043; conditions: organism code II; BHI agar, 35-37° C., 20 to 24 hours; unit assumed
Experimental: as §1, §2, §3

Row | Compound | MIC [1] [µg/mL] | MIC [2] [µg/mL] | MIC [3] [µg/mL] | MIC [4] [µg/mL] | MIC [5] [µg/mL] | MIC [6] [µg/mL] | MIC [7] [µg/mL] | MIC [8] [µg/mL] | MIC (Escherichia coli JUHL) [µg/mL] | MIC [9] [µg/mL] | MIC (Candida albicans CCH 442) [µg/mL] | MIC [10] [µg/mL] | MIC [11] [µg/mL] | MIC [12] [µg/mL] | MIC [14] [µg/mL] | MIC [15] [µg/mL] | MIC (Escherichia coli SS) [µg/mL] | MIC [16] [µg/mL] | MIC [17] [µg/mL] | MIC [19] [µg/mL] | other results
1 | CC[C@H]1OC(=O)[C@H](C)C(=O)[C@H](C)[C@@H](O[C@@H]2O[C@H](C)C[C@H](N(C)C)[C@H]2O)[C@](C)(OCC#Cc2ccc(-c3ccccn3)s2)C[C@@H](C)C2=NCCN3C(=O)O[C@@]1(C)[C@H]3[C@H]2C [Example 35] | > 100 | 0.25 (≈ 0.304 µM) | ≤ 0.004 | 0.05 (≈ 0.0609 µM) | 0.05 (≈ 0.0609 µM) | 0.2 (≈ 0.244 µM) | 6.2 (≈ 7.55 µM) | 0.02 (≈ 0.0244 µM) | 25 (≈ 30.4 µM) | 0.02 (≈ 0.0244 µM) | > 100 | 0.2 (≈ 0.244 µM) | 0.2 (≈ 0.244 µM) | 4 (≈ 4.87 µM) | 0.2 (≈ 0.244 µM) | 0.1 (≈ 0.122 µM) | 0.39 (≈ 0.475 µM) | 0.01 (≈ 0.0122 µM) | > 100 | 0.1 (≈ 0.122 µM) | MIC [13]: 4 µg/mL (≈ 4.87 µM); MIC [18]: ≤ 0.004 µg/mL
2 | CC[C@H]1OC(=O)[C@H](C)C(=O)[C@H](C)[C@@H](O[C@@H]2O[C@H](C)C[C@H](N(C)C)[C@H]2O)[C@](C)(OCC#Cc2ccc(-c3ccncc3)s2)C[C@@H](C)C(=O)[C@H](C)[C@H]2NC(=O)O[C@@]21C [Example 3] | – | – | – | 0.05 (≈ 0.0628 µM) | ≤ 0.05 | – | – | ≤ 0.05 | 100 (≈ 126 µM) | 0.01 (≈ 0.0126 µM) | > 100 | 0.05 (≈ 0.0628 µM) | – | – | 0.1 (≈ 0.126 µM) | > 100 | 0.2 (≈ 0.251 µM) | ≤ 0.05 | > 100 | 0.05 (≈ 0.0628 µM) | MIC [20]: 0.1 µg/mL (≈ 0.126 µM)
3 | CC[C@H]1OC(=O)[C@H](C)C(=O)[C@H](C)[C@@H](O[C@@H]2O[C@H](C)C[C@H](N(C)C)[C@H]2O)[C@](C)(OCC#Cc2ccc(-c3cncc(C(=O)NN(C)C)c3)s2)C[C@@H](C)C(=O)[C@H](C)[C@H]2NC(=O)O[C@@]21C [Example 12] | > 100 | 1 (≈ 1.13 µM) | 0.03 (≈ 0.034 µM) | 0.39 (≈ 0.442 µM) | 0.05 (≈ 0.0567 µM) | 0.39 (≈ 0.442 µM) | 50 (≈ 56.7 µM) | 0.05 (≈ 0.0567 µM) | > 100 | 0.2 (≈ 0.227 µM) | > 100 | 0.39 (≈ 0.442 µM) | 6.2 (≈ 7.03 µM) | 16 (≈ 18.1 µM) | 0.78 (≈ 0.884 µM) | 0.39 (≈ 0.442 µM) | 0.78 (≈ 0.884 µM) | 0.05 (≈ 0.0567 µM) | > 100 | 0.39 (≈ 0.442 µM) | MIC [13]: 1 µg/mL (≈ 1.13 µM); MIC [18]: 0.03 µg/mL (≈ 0.034 µM); MIC [21]: 0.02 µg/mL (≈ 0.0227 µM)
4 | CC[C@H]1OC(=O)[C@H](C)C(=O)[C@H](C)[C@@H](O[C@@H]2O[C@H](C)C[C@H](N(C)C)[C@H]2O)[C@](C)(OCC#Cc2ccc(-c3cscn3)s2)C[C@@H](C)C(=O)[C@H](C)[C@H]2NC(=O)O[C@@]21C [Example 30] | > 100 | 0.25 (≈ 0.312 µM) | ≤ 0.004 | 0.02 (≈ 0.0249 µM) | 0.02 (≈ 0.0249 µM) | 0.05 (≈ 0.0623 µM) | 6.2 (≈ 7.73 µM) | 0.02 (≈ 0.0249 µM) | 12.5 (≈ 15.6 µM) | 0.01 (≈ 0.0125 µM) | > 100 | 0.1 (≈ 0.125 µM) | 0.39 (≈ 0.486 µM) | 2 (≈ 2.49 µM) | 0.1 (≈ 0.125 µM) | 0.05 (≈ 0.0623 µM) | 0.1 (≈ 0.125 µM) | ≤ 0.005 | > 100 | 0.02 (≈ 0.0249 µM) | MIC [13]: 1 µg/mL (≈ 1.25 µM); MIC [18]: ≤ 0.004 µg/mL
